Measured values taken from patent US7884103B2 (priority 2003, dated 2011).

Tests used:
[1] = test system: Plasmopara viticola on vines; test: Action against Plasmopara viticola on vines, residual-protective action (D-1a); assay type: in vivo; settings: vine seedlings sprayed 24 hours before infection, evaluated after 6 days, untreated plants attack 60-100%
Experimental: (§1) Action Against Plasmopara Viticola on Vines
A) Residual-Protective Action
Fungus infestation is evaluated after incubation for 6 days at 95-100% relative humidity and +20° C.

[2] = test system: Plasmopara viticola on vines; test: Action against Plasmopara viticola on vines, residual-curative action (D-1b); assay type: in vivo; settings: vine seedlings sprayed 24 hours after infection, evaluated 6 days after infection, untreated plants attack 60-100%
Experimental: as §1
b) Residual-Curative Action
Vine seedlings are infected at the 4- to 5-leaf stage with a sporangia suspension of the fungus. […] After the spray coating has dried, the treated plants are placed in the humidity chamber again. Fungus infestation is evaluated 6 days after infection.

[3] = test system: Septoria nodorum (Glume blotch); test: Septoria nodorum wheat leaf segment test, preventive fungicidal activity; assay type: cell-based; settings: tested dose range 200 to 22 ppm, wheat leaf segments, assessed 4 dpi
Experimental: Septoria nodorum (Glume blotch): Wheat leaf segments are placed on agar in a multiwell plate (24-well format) and sprayed with test solutions. After drying, the leaf disks are inoculated with a spore suspension of the fungus. After appropriate incubation the activity of a compound is assessed 4 dpi (days after inoculation) as preventive fungicidal activity. Within the tested dose range of 200 to 22 ppm the Compound No. 82 inhibited at least 80% of fungal growth.

Row | SMILES | inhibition at 200 ppm [1] [%] | inhibition at 200 ppm [2] [%] | inhibition of fungal growth [3]
1 | CC(COc1ccc(-n2cncn2)cc1)(NS(=O)(=O)Cc1ccccc1)C(=O)O (stereo not shown) [compound 100, 2-Methyl-2-phenylmethanesulfonylamino-3-(4-[1,2,4]triazol-1-yl-phenoxy)-propionic Acid] | 80 to 100 | 80 to 100 | 
2 | CCOc1ccc(OCC(C)(NS(=O)(=O)Cc2ccccc2)C(=O)N(C)OC)cc1 (stereo not shown) [compound 083, 3-(4-Ethoxy-phenoxy)-N-methoxy-2,N-dimethyl-2-phenylmethanesulfonylamino-propionamide] | 80 to 100 | 80 to 100 | 
3 | C#CCNC(=O)C(C)(COc1ccc(OCC)cc1)NS(=O)(=O)Cc1ccccc1 (stereo not shown) [compound 087, 3-(4-Ethoxy-phenoxy)-2-methyl-2-phenylmethanesulfonylamino-N-prop-2-ynyl-propionamide] | 80 to 100 | 80 to 100 | 
4 | CCOc1ccc(OCC(C)(NS(=O)(=O)Cc2ccccc2)C(=O)OC)cc1 (stereo not shown) [compound 082, 3-(4-Ethoxy-phenoxy)-2-methyl-2-phenylmethanesulfonylamino-propionic Acid Methyl Ester] |  |  | at least 80%
